Literature values in patent US20060165806A1, “Nanoparticulate candesartan formulations” (Elan Pharma International Limited, priority 2005, published 2006).

Columns and labels:
AT1 receptor = target: T1, AT1 receptor (Homo sapiens, UniProt P30556); details: AT1 versus AT2 receptor
T1 sequence (P30556 1-359): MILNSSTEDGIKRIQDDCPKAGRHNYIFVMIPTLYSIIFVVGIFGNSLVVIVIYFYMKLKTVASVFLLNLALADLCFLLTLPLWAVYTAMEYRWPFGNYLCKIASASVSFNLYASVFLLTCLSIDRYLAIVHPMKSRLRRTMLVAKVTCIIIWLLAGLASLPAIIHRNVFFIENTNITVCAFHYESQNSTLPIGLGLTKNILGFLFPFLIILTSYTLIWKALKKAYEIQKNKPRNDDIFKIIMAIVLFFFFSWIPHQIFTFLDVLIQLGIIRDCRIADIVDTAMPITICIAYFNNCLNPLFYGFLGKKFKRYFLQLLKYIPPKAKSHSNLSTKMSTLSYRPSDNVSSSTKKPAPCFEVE

ACE (kininase II) = ACE (kininase II) (Homo sapiens, UniProt P12821)
ACE (kininase II), sequence (P12821 30-1306, species assumed): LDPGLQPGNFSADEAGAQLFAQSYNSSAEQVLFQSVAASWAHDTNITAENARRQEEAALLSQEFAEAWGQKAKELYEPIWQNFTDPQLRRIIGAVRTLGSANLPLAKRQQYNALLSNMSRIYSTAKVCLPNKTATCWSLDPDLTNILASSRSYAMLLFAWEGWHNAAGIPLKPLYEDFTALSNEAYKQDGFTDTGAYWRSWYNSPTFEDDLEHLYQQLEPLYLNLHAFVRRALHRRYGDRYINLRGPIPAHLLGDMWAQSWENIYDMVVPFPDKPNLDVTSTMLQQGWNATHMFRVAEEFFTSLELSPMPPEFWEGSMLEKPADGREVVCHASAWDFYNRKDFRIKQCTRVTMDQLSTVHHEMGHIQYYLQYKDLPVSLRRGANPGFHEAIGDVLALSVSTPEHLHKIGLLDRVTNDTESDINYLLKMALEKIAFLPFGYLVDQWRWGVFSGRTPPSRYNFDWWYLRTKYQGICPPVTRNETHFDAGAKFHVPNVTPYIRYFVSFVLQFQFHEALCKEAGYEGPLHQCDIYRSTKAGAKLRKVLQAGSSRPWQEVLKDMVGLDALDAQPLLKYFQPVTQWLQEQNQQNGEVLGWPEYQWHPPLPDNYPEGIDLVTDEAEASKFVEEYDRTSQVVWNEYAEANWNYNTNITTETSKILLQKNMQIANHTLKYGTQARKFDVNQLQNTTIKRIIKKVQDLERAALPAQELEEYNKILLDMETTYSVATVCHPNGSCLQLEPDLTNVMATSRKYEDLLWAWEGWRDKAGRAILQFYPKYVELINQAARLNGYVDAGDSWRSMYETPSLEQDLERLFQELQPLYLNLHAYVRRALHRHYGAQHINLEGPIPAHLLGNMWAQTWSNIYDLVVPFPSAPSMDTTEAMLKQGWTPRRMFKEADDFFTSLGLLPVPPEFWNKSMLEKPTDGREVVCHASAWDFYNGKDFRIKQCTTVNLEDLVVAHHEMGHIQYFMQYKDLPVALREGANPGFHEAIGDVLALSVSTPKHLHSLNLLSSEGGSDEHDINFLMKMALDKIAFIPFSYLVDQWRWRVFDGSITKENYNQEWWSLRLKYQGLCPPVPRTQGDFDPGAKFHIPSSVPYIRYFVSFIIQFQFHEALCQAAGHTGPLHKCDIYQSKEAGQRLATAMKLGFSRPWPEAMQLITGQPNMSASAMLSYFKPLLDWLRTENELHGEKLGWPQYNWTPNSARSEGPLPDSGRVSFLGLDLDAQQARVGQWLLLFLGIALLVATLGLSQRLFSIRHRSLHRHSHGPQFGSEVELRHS

[1] = test system: other hormone receptors or ion channels known to be important in cardiovascular regulation; details: receptors and channels important in cardiovascular regulation

greater affinity for the AT1 receptor than for the AT2 receptor (AT1 receptor) | inhibition of ACE (kininase II) (ACE (kininase II)) | solubility in water | SMILES | binding to or blocking of other hormone receptors or ion channels [1]
> 10,000 fold | does not inhibit | – | CCOc1nc2cccc(C(=O)O)c2n1Cc1ccc(-c2ccccc2-c2nnn[nH]2)cc1 [Candesartan] | does not bind to or block
– | – | practically insoluble | CCOc1nc2cccc(C(=O)OC(C)OC(=O)OC3CCCCC3)c2n1Cc1ccc(-c2ccccc2-c2nnn[nH]2)cc1 (racemic) [Candesartan cilexitil, (“)-1-Hydroxyethyl 2-ethoxy-1-[p-(o-1H-tetrazol-5-ylphenyl)benzyl]-7-benzimidazolecarboxylate, cyclohexyl carbonate(ester)] | –
